Measured values published in ChEMBL document CHEMBL3396992, “Synthesis and biological evaluation of pyrazolylthiazole carboxylic acids as potent anti-inflammatory-antimicrobial agents” (2015).
≈ marks a conversion by molar mass, not a printed value. Calls of active or inactive are those of the source. The rule behind the calls is not given here.

Key:
Rattus norvegicus [1] = assay: Antiinflammatory activity against carrageenan-induced paw edema male Wistar albino rat assessed as edema volume at 50 mg/kg, po administered 30 mins prior to carrageenan-challenge measured after 1 hr (reference value: 1.11 +/- 0.12 mL); format: functional
Rattus norvegicus [2] = assay: Antiinflammatory activity against carrageenan-induced paw edema male Wistar albino rat assessed as edema volume at 50 mg/kg, ip administered 30 mins prior to carrageenan-challenge measured after 2 hrs (reference value: 1.21 +/- 0.16 mL); format: functional; conditions: route intraperitoneal
Rattus norvegicus [3] = assay: Antiinflammatory activity against carrageenan-induced paw edema male Wistar albino rat assessed as edema volume at 50 mg/kg, ip administered 30 mins prior to carrageenan-challenge measured after 3 hrs (reference value: 1.73 +/- 0.09 mL); format: functional; conditions: route intraperitoneal
Rattus norvegicus [4] = assay: Antiinflammatory activity against carrageenan-induced paw edema male Wistar albino rat assessed as edema volume at 50 mg/kg, ip administered 30 mins prior to carrageenan-challenge measured after 4 hrs (reference value: 1.88 +/- 0.20 mL); format: functional; conditions: route intraperitoneal
Rattus norvegicus [5] = assay: Antiinflammatory activity against carrageenan-induced paw edema male Wistar albino rat at 50 mg/kg, ip administered 30 mins prior to carrageenan-challenge measured after 1 hr relative to control; format: functional; conditions: route intraperitoneal
Rattus norvegicus [6] = assay: Antiinflammatory activity against carrageenan-induced paw edema male Wistar albino rat at 50 mg/kg, ip administered 30 mins prior to carrageenan-challenge measured after 2 hrs relative to control; format: functional; conditions: route intraperitoneal
Rattus norvegicus [7] = assay: Antiinflammatory activity against carrageenan-induced paw edema male Wistar albino rat at 50 mg/kg, ip administered 30 mins prior to carrageenan-challenge measured after 3 hrs relative to control; format: functional; conditions: route intraperitoneal
Rattus norvegicus [8] = assay: Antiinflammatory activity against carrageenan-induced paw edema male Wistar albino rat at 50 mg/kg, ip administered 30 mins prior to carrageenan-challenge measured after 4 hrs relative to control; format: functional; conditions: route intraperitoneal
Staphylococcus aureus [9] = assay: Antimicrobial activity against Staphylococcus aureus MTCC 96 assessed as growth inhibition at 4 mg/ml after 24 hrs by agar well diffusion method; format: functional; conditions: for zone of inhibition at 4000 µg/mL: MTCC 96, 24 h, read-out: DIZ
Staphylococcus aureus [10] = assay: Antimicrobial activity against Staphylococcus aureus MTCC 96 assessed as growth inhibition after 24 hrs by agar well diffusion method; format: functional
Bacillus subtilis [11] = assay: Antimicrobial activity against Bacillus subtilis MTCC 121 assessed as growth inhibition at 4 mg/ml after 24 hrs by agar well diffusion method; format: functional; conditions: for zone of inhibition at 4000 µg/mL: MTCC 121, 24 h, read-out: DIZ
Bacillus subtilis [12] = assay: Antimicrobial activity against Bacillus subtilis MTCC 121 assessed as growth inhibition after 24 hrs by agar well diffusion method; format: functional
Escherichia coli = assay: Antimicrobial activity against Escherichia coli MTCC 1652 assessed as growth inhibition at 4 mg/ml after 24 hrs by agar well diffusion method; format: functional, organism-based
Saccharomyces cerevisiae [13] = assay: Antimicrobial activity against Saccharomyces cerevisiae MTCC 170 assessed as growth inhibition at 4 mg/ml after 24 hrs by agar well diffusion method; format: functional; conditions: for zone of inhibition at 4000 µg/mL: MTCC 170, 24 h, read-out: DIZ
Saccharomyces cerevisiae [14] = assay: Antimicrobial activity against Saccharomyces cerevisiae MTCC 170 assessed as growth inhibition after 24 hrs by agar well diffusion method; format: functional
Candida albicans [15] = assay: Antimicrobial activity against Candida albicans MTCC 3017 assessed as growth inhibition at 4 mg/ml after 24 hrs by agar well diffusion method; format: functional; conditions: MTCC 3017, 24 h, read-out: DIZ
Candida albicans [16] = assay: Antimicrobial activity against Candida albicans MTCC 3017 assessed as growth inhibition after 24 hrs by agar well diffusion method; format: functional; conditions: MTCC 3017, 24 h
Pseudomonas aeruginosa = conditions: MTCC 741, 4 mg/ml
Description: Antimicrobial activity against Pseudomonas aeruginosa MTCC 741 assessed as growth inhibition at 4 mg/ml after 24 hrs by agar well diffusion method

Row | Structure (SMILES) | Activity (Rattus norvegicus [1]) [mL] | Activity (Rattus norvegicus [2]) [mL] | Activity (Rattus norvegicus [3]) [mL] | Activity (Rattus norvegicus [4]) [mL] | Activity (Rattus norvegicus [5]) [%] | Activity (Rattus norvegicus [6]) [%] | Activity (Rattus norvegicus [7]) [%] | Activity (Rattus norvegicus [8]) [%] | diameter of the inhibition zone (DIZ) (Staphylococcus aureus [9]) | MIC (Staphylococcus aureus [10]) | zone of inhibition at 4000 µg/mL (Bacillus subtilis [11]) [mm] | MIC (Bacillus subtilis [12]; MTCC 121, 24 h) [µg/mL] | diameter of the inhibition zone (DIZ) (Escherichia coli) | zone of inhibition at 4000 µg/mL (Candida albicans [15]) [mm] | MIC (Candida albicans [16]) [µg/mL] | DIZ (Pseudomonas aeruginosa) | zone of inhibition at 4000 µg/mL (Staphylococcus aureus [9]) [mm] | MIC (Staphylococcus aureus [10]; MTCC 96, 24 h) [µg/mL] | zone of inhibition at 4000 µg/mL (Saccharomyces cerevisiae [13]) [mm] | MIC (Saccharomyces cerevisiae [14]; MTCC 170, 24 h) [µg/mL] | other results
1 | CCOC(=O)c1sc(-c2cn(-c3ccccc3)nc2-c2ccc(F)cc2)nc1-c1ccc(OC)cc1 | 0.22 | 0.27 | 0.39 | 0.32 | 80.18 | 79.33 | 77.45 | 82.97 | inactive | inactive | 13.3 | 50 (≈ 100 µM) | inactive | 15.6 | 50 (≈ 100 µM) | inactive | – | – | – | – | diameter of the inhibition zone (DIZ) (Saccharomyces cerevisiae [13]): inactive; MIC (Saccharomyces cerevisiae [14]): inactive
2 | COc1ccc(-c2nn(-c3ccccc3)cc2-c2nc(-c3ccc(Cl)cc3)c(C(=O)O)s2)cc1 | 0.18 | 0.26 | 0.28 | 0.2 | 83.78 | 78.51 | 83.81 | 89.36 | – | – | 29.6 | 6.25 (≈ 12.8 µM) | inactive | 27.6 | 6.25 (≈ 12.8 µM) | inactive | 24.6 | 6.25 (≈ 12.8 µM) | 27.6 | 6.25 (≈ 12.8 µM) | –
3 | CCOC(=O)c1sc(-c2cn(-c3ccccc3)nc2-c2ccccc2)nc1-c1ccc(F)cc1 | 0.29 | 0.22 | 0.31 | 0.42 | 73.87 | 81.81 | 82.08 | 88.29 | inactive | inactive | – | – | inactive | 18.6 | 25 (≈ 53.2 µM) | inactive | – | – | – | – | diameter of the inhibition zone (DIZ) (Bacillus subtilis [11]): inactive; MIC (Bacillus subtilis [12]): inactive; diameter of the inhibition zone (DIZ) (Saccharomyces cerevisiae [13]): inactive; MIC (Saccharomyces cerevisiae [14]): inactive
4 | COc1ccc(-c2nc(-c3cn(-c4ccccc4)nc3-c3ccccc3)sc2C(=O)O)cc1 | 0.19 | 0.25 | 0.24 | 0.22 | 82.88 | 79.33 | 86.12 | 88.29 | – | – | 17.6 | 50 (≈ 110 µM) | inactive | 15.3 | 50 (≈ 110 µM) | inactive | 20.3 | 25 (≈ 55.1 µM) | 21.3 | 25 (≈ 55.1 µM) | –
5 | O=C(O)c1sc(-c2cn(-c3ccccc3)nc2-c2ccc(Cl)cc2)nc1-c1ccc(F)cc1 | 0.29 | 0.33 | 0.49 | 0.38 | 73.87 | 72.72 | 71.67 | 79.78 | inactive | inactive | – | – | inactive | 12 | 50 (≈ 105 µM) | inactive | – | – | 24.6 | 12.5 (≈ 26.3 µM) | diameter of the inhibition zone (DIZ) (Bacillus subtilis [11]): inactive; MIC (Bacillus subtilis [12]): inactive
6 | CCOC(=O)c1sc(-c2cn(-c3ccccc3)nc2-c2ccc(Cl)cc2)nc1-c1ccc(F)cc1 | 0.18 | 0.47 | 0.5 | 0.19 | 83.78 | 61.15 | 71.09 | 89.89 | – | – | 13.3 | 50 (≈ 99.2 µM) | inactive | 17.6 | 50 (≈ 99.2 µM) | inactive | 12 | 50 (≈ 99.2 µM) | – | – | diameter of the inhibition zone (DIZ) (Saccharomyces cerevisiae [13]): inactive; MIC (Saccharomyces cerevisiae [14]): inactive
7 | CCOC(=O)c1sc(-c2cn(-c3ccccc3)nc2-c2ccc(Cl)cc2)nc1-c1ccc(Cl)cc1 | 0.18 | 0.27 | 0.12 | 0.18 | 83.78 | 77.68 | 93.06 | 90.42 | inactive | inactive | – | – | inactive | 13 | 50 (≈ 96.1 µM) | inactive | – | – | 15 | 50 (≈ 96.1 µM) | diameter of the inhibition zone (DIZ) (Bacillus subtilis [11]): inactive; MIC (Bacillus subtilis [12]): inactive
8 | CCOC(=O)c1sc(-c2cn(-c3ccccc3)nc2-c2ccccc2)nc1-c1ccc(OC)cc1 | 0.22 | 0.29 | 0.24 | 0.34 | 80.18 | 76.03 | 86.12 | 81.91 | inactive | inactive | 13.6 | 50 (≈ 104 µM) | inactive | 16.3 | 50 (≈ 104 µM) | inactive | – | – | – | – | diameter of the inhibition zone (DIZ) (Saccharomyces cerevisiae [13]): inactive; MIC (Saccharomyces cerevisiae [14]): inactive
9 | O=C(O)c1sc(-c2cn(-c3ccccc3)nc2-c2ccccc2)nc1-c1ccc(F)cc1 | 0.19 | 0.16 | 0.18 | 0.17 | 82.88 | 86.77 | 89.59 | 90.95 | – | – | 18.3 | 25 (≈ 56.6 µM) | inactive | 25.6 | 12.5 (≈ 28.3 µM) | inactive | 24.6 | 12.5 (≈ 28.3 µM) | 20.6 | 25 (≈ 56.6 µM) | –
10 | COc1ccc(-c2nc(-c3cn(-c4ccccc4)nc3-c3ccc(F)cc3)sc2C(=O)O)cc1 | 0.22 | 0.4 | 0.56 | 0.36 | 80.18 | 66.94 | 67.63 | 80.85 | – | – | 14.6 | 50 (≈ 106 µM) | inactive | 15.3 | 50 (≈ 106 µM) | inactive | 20.6 | 25 (≈ 53 µM) | 15.3 | 50 (≈ 106 µM) | –
11 | COc1ccc(-c2nn(-c3ccccc3)cc2-c2nc(-c3ccc(F)cc3)c(C(=O)O)s2)cc1 | 0.19 | 0.22 | 0.31 | 0.18 | 82.88 | 81.81 | 82.08 | 90.42 | – | – | 12 | 50 (≈ 106 µM) | inactive | 12 | 50 (≈ 106 µM) | inactive | 12 | 50 (≈ 106 µM) | 15.3 | 50 (≈ 106 µM) | –
12 | CCOC(=O)c1sc(-c2cn(-c3ccccc3)nc2-c2ccccc2)nc1-c1ccccc1 | 0.1 | 0.3 | 0.28 | 0.24 | 90.99 | 75.2 | 83.81 | 87.23 | – | – | 11 | 50 (≈ 111 µM) | inactive | 15.3 | 50 (≈ 111 µM) | inactive | 14.3 | 50 (≈ 111 µM) | – | – | diameter of the inhibition zone (DIZ) (Saccharomyces cerevisiae [13]): inactive; MIC (Saccharomyces cerevisiae [14]): inactive
